Source: patent publication US20240158348A1, “HERBICIDAL CYCLIC AMIDES N-SUBSTITUTED WITH A HALOALKYLSULFONYLANILIDE GROUP” (FMC Corporation, priority 2021, published 2024)

Experiments:
Format in all cases: in vivo
[1] = test system: ragweed (common ragweed, Ambrosia artemisiifolia); experiment: Test C preemergence, ragweed; conditions: 0 is no effect, 100 is complete control
Method in brief: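 Ratings run from 0, meaning no effect, up to 100, meaning complete control, judged by eye against untreated plants. Treatment was a directed soil spray before emergence or a postemergence spray on 2–10 cm seedlings, with evaluation 10 or 12 days later.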

[2] = test system: ryegrass, Italian (Italian ryegrass, Lolium multiflorum); experiment: Test C preemergence, Italian ryegrass; conditions: 0 is no effect, 100 is complete control
Method in brief: (§1)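 Herbicidal effect was estimated visually on a 0–100 scale 10 or 12 days after spraying. Formulation: non-phytotoxic solvent mixture with surfactant. Timing: directed soil spray after sowing, or postemergence on seedlings bearing one or two leaves.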

[3] = test system: ryegrass, Italian (Italian ryegrass, Lolium multiflorum); experiment: Test C postemergence, Italian ryegrass; conditions: for Ryegrass, Italian plant response rating: visual injury, 0 to 100 scale (0 no effect, 100 complete control); for Plant response rating (0 to 100 scale), Ryegrass, Italian: 0 is no effect, 100 is complete control
Method in brief: as §1

[4] = test system: wheat (Triticum aestivum); experiment: Test C postemergence, wheat; conditions: for Wheat plant response rating: visual injury, 0 to 100 scale (0 no effect, 100 complete control); for Plant response rating (0 to 100 scale), Wheat: 0 is no effect, 100 is complete control
Method in brief: as §1

[5] = test system: galium (catchweed bedstraw, Galium aparine); experiment: Test C postemergence, galium; conditions: for Galium plant response rating: visual injury, 0 to 100 scale (0 no effect, 100 complete control); for Plant response rating (0 to 100 scale), Galium: 0 is no effect, 100 is complete control
[6] = test system: horseweed (Erigeron canadensis); experiment: Test C postemergence, horseweed; conditions: for Horseweed plant response rating: visual injury, 0 to 100 scale (0 no effect, 100 complete control); for Plant response rating (0 to 100 scale), Horseweed: 0 is no effect, 100 is complete control
Method in brief: as §1

[7] = test system: barnyardgrass (Echinochloa crusgalli); experiment: Test D flooded paddy test, barnyardgrass; design: key: 0 = no effect, 100 = complete control; conditions: 250 g ai/ha, Flood; applied to paddy water at 2-leaf stage; visual rating after 13 days; scale 0 (no effect) to 100 (complete control)
Method in brief: (§2)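 Plants were grown to the 2-leaf stage, then pots were flooded to 3 cm above soil and compounds applied directly into the paddy water, with that depth held throughout. After 13 days in a greenhouse, injury was visually rated against untreated controls on a 0–100 scale (0 no effect, 100 complete control).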

[8] = test system: sedge, umbrella (small-flower umbrella sedge, Cyperus difformis); experiment: Test D flooded paddy test, umbrella sedge; design: key: 0 = no effect, 100 = complete control; conditions: 250 g ai/ha, Flood; applied to paddy water at 2-leaf stage; visual rating after 13 days; scale 0 (no effect) to 100 (complete control)
Method in brief: as §2

SMILES | Plant response rating (0 to 100 scale), Ragweed ([1]; 31 g ai/ha Preemergence) | Plant response rating (0 to 100 scale), Ragweed ([1]; 125 g ai/ha Preemergence) | Plant response rating (0 to 100 scale), Ryegrass, Italian ([2]; 31 g ai/ha Preemergence) | Plant response rating (0 to 100 scale), Ryegrass, Italian ([2]; 125 g ai/ha Preemergence) | Ryegrass, Italian plant response rating ([3]; 31 g ai/ha Postemergence) | Ryegrass, Italian plant response rating ([3]; 125 g ai/ha Postemergence) | Wheat plant response rating ([4]; 31 g ai/ha Postemergence) | Wheat plant response rating ([4]; 125 g ai/ha Postemergence) | Galium plant response rating ([5]; 31 g ai/ha Postemergence) | Plant response rating (0 to 100 scale), Galium ([5]; 125 g ai/ha Postemergence) | Horseweed plant response rating ([6]; 31 g ai/ha Postemergence) | Plant response rating (0 to 100 scale), Horseweed ([6]; 125 g ai/ha Postemergence) | Plant response rating, Barnyardgrass [7] | Plant response rating, Sedge, Umbrella [8] | Plant response rating (0 to 100 scale), Ryegrass, Italian ([3]; 125 g ai/ha Postemergence) | Plant response rating (0 to 100 scale), Wheat ([4]; 125 g ai/ha Postemergence) | Galium plant response rating ([5]; 125 g ai/ha Postemergence) | Horseweed plant response rating ([6]; 125 g ai/ha Postemergence)
Cc1c(N2CCCC(OC3CCC3)C2=O)cc(N(COC(=O)C(C)(C)C)S(=O)(=O)C(F)(F)F)c(C)c1F (centres unmarked) [Compound 39] | 0 | 80 | 0 | 60 | 0 | 30 | 0 | 60 | 80 | 90 | 70 | 90 | 35 | 95 | – | – | – | –
COC(=O)N(c1cc(N2CCC(OC3CC3)C2=O)c(C)cc1C)S(=O)(=O)C(F)(F)F (centres unmarked) [Compound 16] | 0 | 0 | 0 | 0 | 0 | – | 0 | – | 50 | 50 | 0 | 30 | 0 | 0 | 0 | 0 | – | –
Cc1cc(Cl)c(N(COC(=O)C(C)(C)C)S(=O)(=O)C(F)(F)F)cc1N1CCC(OC2CC2)C1=O (centres unmarked) [Compound 33] | 30 | 80 | 20 | 100 | 20 | 90 | 50 | 70 | 100 | 100 | 70 | 100 | 90 | 90 | – | – | – | –
Cc1cc(C)c(N2CCC(OCc3ccccc3)C2=O)cc1NS(=O)(=O)C(F)(F)F (centres unmarked) [Compound 61] | 0 | 90 | 60 | 90 | 0 | 60 | 70 | 80 | 70 | – | 60 | – | 95 | 90 | – | – | 90 | 60
Cc1cc(C)c(N2CCC(OCC3CCCC3)C2=O)cc1NS(=O)(=O)C(F)(F)F (centres unmarked) [Compound 57] | 0 | 80 | 70 | 90 | 20 | 60 | 70 | 70 | 50 | – | 0 | – | 15 | 95 | – | – | 90 | 80
C#CC(C)OC1CCN(c2cc(NS(=O)(=O)C(F)(F)F)c(C)cc2C)C1=O (centres unmarked) [Compound 58] | 80 | 90 | 90 | 100 | 60 | 70 | 70 | 70 | 90 | – | 90 | – | 90 | 95 | – | – | 90 | 90
Cc1c(N2CCC(OC3CC3)C2=O)cc(N(COC(=O)C(C)(C)C)S(=O)(=O)C(F)(F)F)c(C)c1F (centres unmarked) [Compound 23] | 30 | 90 | 30 | 100 | 50 | – | 10 | – | 90 | 100 | 80 | 90 | 95 | 95 | 100 | 60 | – | –
